Here are results for 37 compounds from article PMC10674894 (Viruses, 2023).

The subject of one series is Vero cells. Kind of series: Cytotoxicity MTT assay in Vero cells (MNTD, CC50). The class given is cell-based, African green monkey. As to conditions: Table S1; Vero cells. For orientation: Formazan colour is commonly taken as a measure of viable cells.
Another series relates to CHIKV DRDE-07. Kind of series: In vitro screening against CHIKV (CPE inhibition and MTT cell viability). The conditions noted are these: Table S1, CHIKV-infected Vero cells; for % Cell viability: 72 hpi, MTT assay; for CPE: arbitrary score of cytopathic effect at >48 hpi. The class given is cell-based, chikungunya virus.

Molecules are shown by their SMILES.

On to `O=C(NNC(=O)c1cccnc1)c1ccccc1` [DCR4, N'-benzoylnicotinohydrazide], for which the MNTD in the series on Vero cells is given as 31.25 µM. In addition, in the series with CHIKV DRDE-07, the “% Cell viability” value is listed as 15% and the CPE entry is listed as “++++ (>60% (++++))”.

Consider `O=C(NNC(=O)c1ccccc1Cl)c1cccnc1` [DCR5, N'-(2-chlorobenzoyl)nicotinohydrazide], for which the MNTD with Vero cells is 31.25 µM. In addition, in the series on CHIKV DRDE-07, the “% Cell viability” value was 13.49% and the CPE result is “++++ (>60% (++++))”.

`O=C(NNC(=O)c1cccnc1)c1ccc(Cl)cc1` [DCR6, N'-(4-chlorobenzoyl)nicotinohydrazide] showed an MNTD with Vero cells of 31.25 µM. Also, in the series with CHIKV DRDE-07, the “% Cell viability” value was determined as 16.98% and the CPE result was “++++ (>60% (++++))”.

For `CC(=O)NNC(=O)c1cccnc1` [DCR7, N'-acetylnicotinohydrazide], in the series with Vero cells, the MNTD turned out to be 62.5 µM. In the series with CHIKV DRDE-07, the “% Cell viability” value worked out at 20.31% and the CPE entry was “++++ (>60% (++++))”.

`O=C(CCl)NNC(=O)c1cccnc1` [DCR8, N'-(2-chloroacetyl)nicotinohydrazide] gave an MNTD with Vero cells of 31.25 µM. Also, in the series with CHIKV DRDE-07, the “% Cell viability” value is recorded as 13.8% and the CPE entry is listed as “++++ (>60% (++++))”.

In the case of `O=C(NNC(=O)c1ccncc1)c1ccccc1` [DCR9, N'-benzoylisonicotinohydrazide], in the series on Vero cells, the MNTD came out at 31.25 µM. Moreover, in the series on CHIKV DRDE-07, the “% Cell viability” value amounted to 9.92% and the CPE result is given as “++++ (>60% (++++))”.

For `O=C(NNC(=O)c1ccccc1Cl)c1ccncc1` [DCR10, N'-(2-chlorobenzoyl)isonicotinohydrazide], the MNTD in the series with Vero cells amounted to 31.25 µM. In addition, in the series on CHIKV DRDE-07, the “% Cell viability” value was 21.19% and the CPE result is “++++ (>60% (++++))”.

The compound `O=C(NNC(=O)c1ccc(Cl)cc1)c1ccncc1` [DCR11, N'-(4-chlorobenzoyl)isonicotinohydrazide] had an MNTD with Vero cells of 31.25 µM. In the series with CHIKV DRDE-07, the “% Cell viability” value is 22.85% and the CPE entry is “++++ (>60% (++++))”.

In the case of `O=C(CCl)NNC(=O)c1ccncc1` [DCR12, N'-(2-chloroacetyl)isonicotinohydrazide], in the series on Vero cells, the MNTD is 31.25 µM. Further, in the series with CHIKV DRDE-07, the “% Cell viability” value stood at 16.34% and the CPE entry is “++++ (>60% (++++))”.

On to `CC(=O)NNC(=O)c1ccncc1` [DCR13, N'-acetylisonicotinohydrazide], for which the MNTD in the series with Vero cells came out at 62.5 µM. In the series on CHIKV DRDE-07, the “% Cell viability” value came to 15.07% and the CPE result is recorded as “++++ (>60% (++++))”.

`O=C(N/N=C/c1ccccc1)c1cccnc1` [DCR14, (E)-N'-benzylidenenicotinohydrazide] yielded an MNTD in the series with Vero cells of 31.25 µM. Also, in the series with CHIKV DRDE-07, the “% Cell viability” value was found to be 22.93% and the CPE result was “++++ (>60% (++++))”.

`Cc1ccccc1/C=N/NC(=O)c1cccnc1` [DCR15, (E)-N'-(2-methylbenzylidene)nicotinohydrazide]: the MNTD in the series with Vero cells turned out to be 31.25 µM. Moreover, in the series on CHIKV DRDE-07, the “% Cell viability” value came out at 14.76% and the CPE entry is “++++ (>60% (++++))”.

Turning to `Cc1ccc(/C=N/NC(=O)c2cccnc2)cc1` [DCR16, (E)-N'-(4-methylbenzylidene)nicotinohydrazide], in the series on Vero cells, the MNTD is on record as 31.25 µM. In addition, in the series with CHIKV DRDE-07, the “% Cell viability” value came out at 18.49% and the CPE entry is “++++ (>60% (++++))”.

With `CCOc1ccc(/C=N/NC(=O)c2cccnc2)cc1OC` [DCR17, (E)-N'-(4-ethoxy-3-methoxybenzylidene)nicotinohydrazide], the MNTD with Vero cells was found to be 31.25 µM. Moreover, in the series on CHIKV DRDE-07, the “% Cell viability” value turned out to be 0.1% and the CPE result is listed as “++++ (>60% (++++))”.

`CCOc1cc(/C=N/NC(=O)c2cccnc2)ccc1O` [DCR18, (E)-N'-(3-ethoxy-4-hydroxybenzylidene)nicotinohydrazide] displayed an MNTD in the series on Vero cells of 31.25 µM. Besides, in the series with CHIKV DRDE-07, the “% Cell viability” value is 15.39% and the CPE result is given as “++++ (>60% (++++))”.

As to `O=C(N/N=C/c1cccc([N+](=O)[O-])c1)c1cccnc1` [DCR19, (E)-N'-(3-nitrobenzylidene)nicotinohydrazide], the MNTD in the series with Vero cells stood at 62.5 µM. Further, in the series with CHIKV DRDE-07, the “% Cell viability” value is given as 20.39% and the CPE result was “++++ (>60% (++++))”.

Turning to `O=C(N/N=C/c1ccccc1[N+](=O)[O-])c1cccnc1` [DCR20, (E)-N'-(2-nitrobenzylidene)nicotinohydrazide], the MNTD with Vero cells is on record as 31.25 µM. Besides, in the series on CHIKV DRDE-07, the “% Cell viability” value was 22.69% and the CPE result is “++++ (>60% (++++))”.

In turn, `O=C(N/N=C/c1ccco1)c1cccnc1` [DCR21, (E)-N'-(furan-2-ylmethylene)nicotinohydrazide] returned an MNTD in the series with Vero cells of 62.5 µM. In addition, in the series on CHIKV DRDE-07, the “% Cell viability” value is reported as 0% and the CPE entry is “++++ (>60% (++++))”.

Compound `O=C(N/N=C/c1cccc(Br)c1)c1cccnc1` [DCR22, (E)-N'-(3-bromobenzylidene)nicotinohydrazide] yielded an MNTD in the series on Vero cells of 15.6 µM. In addition, in the series on CHIKV DRDE-07, the “% Cell viability” value is 19.28% and the CPE entry was “++++ (>60% (++++))”.

Regarding `O=C(N/N=C/c1ccccc1Br)c1cccnc1` [DCR23, (E)-N'-(2-bromobenzylidene)nicotinohydrazide], in the series on Vero cells, the MNTD is 15.6 µM. Also, in the series with CHIKV DRDE-07, the “% Cell viability” value was found to be 28.01% and the CPE entry is reported as “++++ (>60% (++++))”.

For the compound `O=C(N/N=C/c1ccc(Cl)cc1)c1cccnc1` [DCR25, (E)-N'-(4-chlorobenzylidene)nicotinohydrazide], in the series with Vero cells, the MNTD turned out to be 62.5 µM. Also, in the series with CHIKV DRDE-07, the “% Cell viability” value turned out to be 30.15% and the CPE result is given as “++++ (>60% (++++))”.

The compound `O=C(N/N=C/c1ccc(Cl)cc1Cl)c1cccnc1` [DCR26, (E)-N'-(2,4-dichlorobenzylidene)nicotinohydrazide] gave an MNTD with Vero cells of 31.25 µM. Further, in the series on CHIKV DRDE-07, the “% Cell viability” value is 26.11% and the CPE result is listed as “++++ (>60% (++++))”.

In the series with Vero cells, `COc1cc(/C=N/NC(=O)c2cccnc2)cc(OC)c1OC` [DCR27, (E)-N'-(3,4,5-trimethoxybenzylidene)nicotinohydrazide] registered an MNTD of 31.25 µM. In addition, in the series with CHIKV DRDE-07, the “% Cell viability” value is reported as 21.26% and the CPE entry was “++++ (>60% (++++))”.

The compound `O=C(O)c1ccc(/C=N/NC(=O)c2cccnc2)cc1` [DCR28, (E)-4-((2-nicotinoylhydrazono)methyl)benzoic acid] had an MNTD with Vero cells of 62.5 µM. In addition, in the series with CHIKV DRDE-07, the “% Cell viability” value is 15.63% and the CPE result was “++++ (>60% (++++))”.

For the compound `Cc1ccccc1/C=N/NC(=O)c1ccncc1` [DCR30, (E)-N'-(2-methylbenzylidene)isonicotinohydrazide], the MNTD in the series with Vero cells stood at 62.5 µM. Moreover, in the series on CHIKV DRDE-07, the “% Cell viability” value was 23.8% and the CPE result is “++++ (>60% (++++))”.

As for `Cc1ccc(/C=N/NC(=O)c2ccncc2)cc1` [DCR31, (E)-N'-(4-methylbenzylidene)isonicotinohydrazide], the MNTD in the series with Vero cells came out at 62.5 µM. Moreover, in the series with CHIKV DRDE-07, the “% Cell viability” value amounted to 1.03% and the CPE entry is listed as “++++ (>60% (++++))”.

`CCOc1ccc(/C=N/NC(=O)c2ccncc2)cc1OC` [DCR32, (E)-N'-(4-ethoxy-3-methoxybenzylidene)isonicotinohydrazide] gave an MNTD in the series with Vero cells of 31.25 µM. For the same compound, in the series with CHIKV DRDE-07, the “% Cell viability” value was determined as 6.03% and the CPE result is “++++ (>60% (++++))”.

In the series on Vero cells, `CCOc1cc(/C=N/NC(=O)c2ccncc2)ccc1O` [DCR33, (E)-N'-(3-ethoxy-4-hydroxybenzylidene)isonicotinohydrazide] yielded an MNTD of 62.5 µM. In addition, in the series with CHIKV DRDE-07, the “% Cell viability” value was found to be 0% and the CPE result is “++++ (>60% (++++))”.

`O=C(N/N=C/c1cccc([N+](=O)[O-])c1)c1ccncc1` [DCR34, (E)-N'-(3-nitrobenzylidene)isonicotinohydrazide]: in the series on Vero cells, the MNTD is recorded as 62.5 µM. In addition, in the series with CHIKV DRDE-07, the “% Cell viability” value is given as 6.42% and the CPE result was “++++ (>60% (++++))”.

In the series with Vero cells, `O=C(N/N=C/c1ccccc1[N+](=O)[O-])c1ccncc1` [DCR35, (E)-N'-(2-nitrobenzylidene)isonicotinohydrazide] yielded an MNTD of 62.5 µM. Moreover, in the series with CHIKV DRDE-07, the “% Cell viability” value was found to be 9.84% and the CPE result is recorded as “++++ (>60% (++++))”.

On to `O=C(N/N=C/c1ccco1)c1ccncc1` [DCR36, (E)-N'-(furan-2-ylmethylene)isonicotinohydrazide], for which the MNTD in the series with Vero cells is on record as 62.5 µM. In addition, in the series on CHIKV DRDE-07, the “% Cell viability” value is 5% and the CPE result is reported as “++++ (>60% (++++))”.

For `O=C(N/N=C/c1cccc(Br)c1)c1ccncc1` [DCR37, (E)-N'-(3-bromobenzylidene)isonicotinohydrazide], in the series with Vero cells, the MNTD is 31.25 µM. Further, in the series with CHIKV DRDE-07, the “% Cell viability” value is listed as 14.36% and the CPE entry is listed as “++++ (>60% (++++))”.

In turn, `O=C(N/N=C/c1ccccc1Br)c1ccncc1` [DCR38, (E)-N'-(2-bromobenzylidene)isonicotinohydrazide] gave an MNTD with Vero cells of 31.25 µM. For the same compound, in the series on CHIKV DRDE-07, the “% Cell viability” value was determined as 25.1% and the CPE entry is reported as “++++ (>60% (++++))”.

As to `O=C(N/N=C/c1ccc(Cl)cc1)c1ccncc1` [DCR40, (E)-N'-(4-chlorobenzylidene)isonicotinohydrazide], in the series with Vero cells, the MNTD was found to be 31.25 µM. Moreover, in the series with CHIKV DRDE-07, the “% Cell viability” value came to 5.23% and the CPE result is listed as “++++ (>60% (++++))”.

For the compound `O=C(N/N=C/c1ccc(Cl)cc1Cl)c1ccncc1` [DCR41, (E)-N'-(2,4-dichlorobenzylidene)isonicotinohydrazide], the MNTD in the series with Vero cells was determined as 31.25 µM. Also, in the series on CHIKV DRDE-07, the “% Cell viability” value came out at 35.79% and the CPE entry is reported as “++++ (>60% (++++))”.

Turning to `COc1cc(/C=N/NC(=O)c2ccncc2)cc(OC)c1OC` [DCR42, (E)-N'-(3,4,5-trimethoxybenzylidene)isonicotinohydrazide], the MNTD with Vero cells was 31.25 µM. In addition, in the series with CHIKV DRDE-07, the “% Cell viability” value is 12.22% and the CPE entry is given as “++++ (>60% (++++))”.

Take `C#CCOC(=O)C1=C(C)NC(=O)NC1c1ccc([N+](=O)[O-])cc1` (centres unmarked) [DCR93, prop-2-yn-1-yl 6-methyl-4-(4-nitrophenyl)-2-oxo-1,2,3,4-tetrahydropyrimidine-5-carboxylate]: in the series with CHIKV DRDE-07, the “% Cell viability” value worked out at 12.17% and the CPE result is on record as “++++ (>60% (++++))”.
